Patent EP4426265B1, “OPHTHALMIC COMPOSITION COMPRISING A LUBRICANT AGENT AND VERBASCOSIDE, AND SAID COMPOSITION FOR USE IN THE PREVENTIVE OR CURATIVE TREATMENT OF A CORNEAL EPITHELIAL DEFECT AND/OR A CONJUNCTIVAL DEFECT IN A SUBJECT” (NOVAX PHARMA S.A.M., priority 2021, dated 2023)

Conditions: not told

| SMILES | percentage average value (%av) of permeability |
| --- | --- |
| OB(O)O [Boric acid] | 0.9% |
| C[C@@H]1O[C@@H](O[C@@H]2[C@@H](O)[C@H](OCCc3ccc(O)c(O)c3)O[C@H](CO)[C@H]2OC(=O)/C=C/c2ccc(O)c(O)c2)[C@H](O)[C@H](O)[C@H]1O [VERBASCOSIDE, Verbascoside] | not measurable |
